Measured values from patent publication US20220202957A1, “LONG-LASTING ANALGESIA VIA TARGETED IN VIVO EPIGENETIC REPRESSION” (The Regents of the University of California, priority 2019, published 2022).

Key:
NaV1.7 = test: In vivo Nav1.7 repression in mice DRG (L4-L6) by qPCR after intrathecal AAV9; design: species or system mouse; settings: gabapentin benchmarking experiment; 24 h after carrageenan; vs AAV9-mCherry
Protocol: (§1) Intrathecal AAV Injections. Anesthesia was induced with 2.5% isoflurane delivered in equal parts O2 and room air in a closed chamber until a loss of the righting reflex was observed. The lower back of mice was shaven and swabbed with 70% ethanol. Mice were then intrathecally (i.t.) injected using a Hamilton syringe and 30G needle as previously described 104 between vertebrae L4 and L5 with 5 μL of AAV for a total of 1E+12 vg/mouse. A tail flick was considered indicative of appropriate needle placement. Following injection, all mice resumed motor activity consistent with that observed prior to i.t. injection.
Tissue collection. […]
Gene Expression Analysis and qPCR. […] Relative mRNA expression was normalized to GAPDH levels and fold change was calculated using the comparative CT (AACT) method and normalized to GAPDH. Mean fold change and SD were calculated using Microsoft Excel.
Having established in vitro Nav1.7 repression, testing the effectiveness of the best ZFP-KRAB and KRAB-dCas9 constructs from the in vitro screens (Zinc-Finger-4-KRAB and KRAB-dCas9-dual-gRNA) in a carrageenan-induced model of inflammatory pain was performed. […] After 21 days, thermal pain sensitivity was measured to establish a baseline response threshold. […]

[1] = system: carrageenan-induced model of inflammatory pain; test: Carrageenan-induced inflammatory pain model, thermal paw withdrawal latency (Hargreaves test); type: in vivo, mouse; settings: gabapentin 100 mg/kg i.p.
Protocol: Animals Experiments. All animal procedures were performed in accordance with protocols approved by the Institutional Animal Care and Use Committee (IACUC) of the University of California, San Diego. All mice were acquired from Jackson Laboratory. Two-month-old adult male C57BL/6 mice (25-30 g) were housed with food and water provided ad libitum, under a 12 h light/dark cycle with up to 5 mice per cage. All behavioral tests were performed during the light cycle period.
as §1, with “Following injection, all mice resumed motor activity consistent with that observed prior to i.t. injection.” left out
Pain Models. […] Paw thickness was measured with a caliper before and 4 h after carrageenan/saline injections as an index of edema/inflammation. […]
Thermal Withdrawal Latency (Hargreaves Test): To determine the acute nociceptive thermal threshold, the Hargreaves' test was conducted using a plantar test device (Ugo Basile, Italy) 108. […] Paw withdrawal latencies were measured with a cutoff time of 30 seconds. […]

[2] = system: paclitaxel-induced neuropathy; test: Paclitaxel-induced neuropathic pain model, tactile allodynia (von Frey filaments); type: in vivo, mouse; settings: 21 days after i.t. injection, 24 h after last paclitaxel (4 x 8 mg/kg i.p.); gabapentin 100 mg/kg i.p.
Protocol: as §1
Paclitaxel-induced neuropathy: Paclitaxel (Tocris Biosciences, 1097) was dissolved in a mixture of 1:1:18 [1 volume ethanol/1 volume Cremophor EL (Millipore, 238470)/18 volumes of sterilized 0.9% (W/V) NaCl solution]. […]
Tactile allodynia: For the BzATP pain model, tactile thresholds (allodynia) were assessed 30 minutes, 1, 2, 3, 6, 24 hours after the BzATP injection. For the Paclitaxel model, tactile thresholds (allodynia) were assessed 24 hours and 29 days after the last Paclitaxel injection. […] The 50% probability of withdrawal threshold was assessed using von Frey filaments (Seemes Weinstein von Frey anesthesiometer; Stoelting Co., Wood Dale, Ill., USA) ranging from 2.44 to 4.31 (0.04-2.00 g) in an up-down method, as previously described 107. […]

Nav1.7 transcript = test: In vitro Nav1.7 repression by qPCR in transfected Neuro2a cells; type: cell-based, mouse; settings: qPCR relative to GAPDH, KRAB-dCas9 constructs compared to the non-targeting gRNA control
Protocol: Mammalian Cell Culture. Neuro2a cells were grown in EMEM supplemented with 10% fetal bovine serum (FBS) and 1% Antibiotic-Antimycotic (Thermo Fisher Scientific) in an incubator at 37° C. and 5% CO2 atmosphere.
Lipid-Mediated Cell Transfections. One day prior to transfection, Neuro2a cells were seeded in a 24-well plate at a cell density of 1 or 2E+5 cells per well. […] of each plasmid was added to 25 μL of Opti-MEM medium, followed by addition of 25 μL of Opti-MEM containing 2 μL of Lipofectamine 2000. The mixture was incubated at room temperature for 15 min. The entire solution was then added to the cells in a 24-well plate and mixed by gently swirling the plate. Media was changed after 24 h, and the plate was incubated at 37° C. for 72 h in a 5% CO2 incubator. Cells were harvested, spun down, and frozen at […].
Gene Expression Analysis and qPCR. RNA from Neuro2a cells was extracted using Rneasy Kit (QIAGEN; 74104) and from DRG using Rneasy Micro Kit (QIAGEN; 74004). cDNA was synthesized from RNA using Protoscript II Reverse Transcriptase Kit (NEB; E6560L). […] Relative mRNA expression was normalized to GAPDH levels and fold change was calculated using the comparative CT (AACT) method and normalized to GAPDH. Mean fold change and SD were calculated using Microsoft Excel. […]

Row | Compound | repression of Nav1.7 in DRG (L4-L6) by qPCR, significance (NaV1.7) | PWL of carrageenan-injected paws at each time point vs AAV9-mCherry control (two-way ANOVA) ([1]; 30 min, 1, 2, 4, 24 h after carrageenan, AAV9 1E+12 vg/mouse i.t.) | PWL (AUC of thermal hyperalgesia) in carrageenan-injected paws vs AAV9-mCherry control ([1]; gabapentin benchmarking experiment, day 21) | 50% tactile withdrawal threshold / tactile allodynia (von Frey) [2] | repression of the Nav1.7 transcript (Nav1.7 transcript) [%]
1 | NCC1(CC(=O)O)CCCCC1 [gabapentin] | significant repression of Nav1.7 | at the 30 minute, 1 hour, and four hour time points, but not the 24 hour time point | significant increase in PWL | increased withdrawal thresholds | –
2 | gRNA-2: guide RNA spacer GCAGGTGCACTCACCGGGT (SEQ ID NO: 130), used with KRAB-dCas9 (listed as DNA, chemistry not given here) | – | – | – | – | 56
